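Cultured in 96-well plates, cells were exposed to test compound for 48 hours across five concentrations. At the GI50, growth is halved. TGI: total growth inhibition.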
What was measured:
Test in all cases: NCI anticancer screen, dose series, 48 h
[1] = test system: COLO 205 colon
[2] = test system: ACHN renal
[3] = test system: U251 CNS
[4] = test system: T-47D breast
[5] = test system: OVCAR-4 ovarian
[6] = test system: SK-OV-3 ovarian
[7] = test system: LOX IMVI melanoma
[8] = test system: SW-620 colon
[9] = test system: BT-549 breast
[10] = test system: DU-145 prostate
[11] = test system: MDA-MB-231 breast
[12] = test system: SF-295 CNS
[13] = test system: CCRF-CEM leukemia
[14] = test system: HS 578T breast
[15] = test system: MDA-MB-435
[16] = test system: NCI-H226 lung
[17] = test system: NCI-H23 lung
[18] = test system: CAKI-1 renal
[19] = test system: NCI-H460 lung
[20] = test system: HL-60(TB) leukemia
[21] = test system: TK-10 renal
[22] = test system: SF-268 CNS
[23] = test system: HCC-2998 colon
[24] = test system: SK-MEL-2 melanoma
[25] = test system: NCI-H522 lung
[26] = test system: SN12C renal
[27] = test system: UO-31 renal
[28] = test system: MALME-3M melanoma
[29] = test system: RPMI-8226 leukemia
[30] = test system: SK-MEL-5 melanoma
[31] = test system: HCT-116 colon
[32] = test system: OVCAR-5 ovarian
[33] = test system: HCT-15 colon
[34] = test system: SNB-19 CNS
[35] = test system: 786-0 renal
[36] = test system: EKVX NSCLC
[37] = test system: UACC-257 melanoma
[38] = test system: HOP-92 NSCLC
[39] = test system: A498 renal
[40] = test system: A549 NSCLC
[41] = test system: NCI/ADR-RES ovarian
[42] = test system: SR leukemia
[43] = test system: OVCAR-8 ovarian
[44] = test system: OVCAR-3 ovarian
[45] = test system: HOP-62 NSCLC
[46] = test system: HT29 colon
[47] = test system: SF-539 CNS
[48] = test system: M14 melanoma
[49] = test system: RXF 393 renal
[50] = test system: IGROV1 ovarian
[51] = test system: MOLT-4 leukemia
[52] = test system: KM12 colon
[53] = test system: MCF7 breast
[54] = test system: UACC-62 melanoma

Compound: COc1cc2c3c(n(CCCN(C)C)c(=O)c2cc1OC)-c1cc2c(cc1C3=O)OCO2
- GI50 [1]: 944 nM
- TGI [1]: 11.7 µM
- GI50 [2]: 146 nM
- TGI [2]: 1140 nM
- GI50 [3]: 127 nM
- TGI [3]: 4 µM
- GI50 [4]: 496 nM
- TGI [4]: 3.94 µM
- GI50 [5]: 467 nM
- TGI [5]: 2880 nM
- GI50 [6]: 1290 nM
- TGI [6]: 4.33 µM
- GI50 [7]: 66.2 nM
- TGI [7]: 1580 nM
- TGI [8]: 1900 nM
- GI50 [9]: 1400 nM
- TGI [9]: 3.44 µM
- GI50 [10]: 144 nM
- TGI [10]: 1690 nM
- GI50 [11]: 972 nM
- TGI [11]: 2760 nM
- GI50 [12]: 38.7 nM
- TGI [12]: 1650 nM
- GI50 [13]: < 10 nM
- TGI [13]: 403 nM
- GI50 [14]: 2300 nM
- TGI [14]: 5.93 µM
- GI50 [15]: 650 nM
- TGI [15]: 2130 nM
- GI50 [16]: 1400 nM
- TGI [16]: 5.88 µM
- GI50 [17]: 165 nM
- TGI [17]: 1590 nM
- GI50 [18]: 368 nM
- TGI [18]: 1770 nM
- GI50 [19]: 281 nM
- TGI [19]: 3.37 µM
- GI50 [20]: 1010 nM
- TGI [20]: 3.33 µM
- GI50 [21]: 1.48 µM
- TGI [21]: 3.26 µM
- GI50 [22]: 1110 nM
- TGI [22]: 5.59 µM
- GI50 [23]: < 0.0357 µM
- GI50 [24]: 3.45 µM
- TGI [24]: 13.1 µM
- GI50 [25]: 805 nM
- TGI [25]: 4.74 µM
- GI50 [26]: 935 nM
- TGI [26]: 2750 nM
- GI50 [27]: 926 nM
- TGI [27]: 2260 nM
- GI50 [28]: 163 nM
- TGI [28]: 1980 nM
- GI50 [29]: 182 nM
- TGI [29]: 1.19 µM
- GI50 [30]: 436 nM
- TGI [30]: 2090 nM
- GI50 [31]: 220 nM
- TGI [31]: 1870 nM
- GI50 [32]: 1200 nM
- TGI [32]: 2440 nM
- GI50 [33]: 331 nM
- GI50 [34]: 554 nM
- TGI [34]: 6.12 µM
- GI50 [35]: 79.9 nM
- TGI [35]: 583 nM
- GI50 [36]: 1460 nM
- TGI [36]: 3.39 µM
- GI50 [37]: 1180 nM
- TGI [37]: 2840 nM
- GI50 [38]: 1840 nM
- TGI [38]: 10.6 µM
- GI50 [39]: 9.92 µM
- TGI [39]: 33.4 µM
- GI50 [40]: 515 nM
- TGI [40]: 2290 nM
- GI50 [41]: 67.8 nM
- TGI [41]: 564 nM
- GI50 [42]: < 10 nM
- TGI [42]: 112 nM
- GI50 [43]: 432 nM
- TGI [43]: 3.04 µM
- GI50 [44]: 1330 nM
- TGI [44]: 2910 nM
- GI50 [45]: 18.2 nM
- TGI [45]: 421 nM
- GI50 [46]: 70.2 nM
- TGI [46]: 1780 nM
- GI50 [47]: 162 nM
- TGI [47]: 1310 nM
- GI50 [48]: 422 nM
- TGI [48]: 1930 nM
- GI50 [49]: 2480 nM
- TGI [49]: > 100 µM
- GI50 [50]: 1040 nM
- TGI [50]: 2380 nM
- GI50 [51]: < 10 nM
- TGI [51]: 3.4 µM
- GI50 [52]: 678 nM
- TGI [52]: 2680 nM

Compound: Cc1cc(C)c(S(=O)(=O)N2CCN(c3cc4c(cc3F)c(=O)c(C(=O)O)cn4C3CC3)CC2)c(C)c1
- GI50 [2]: 2460 nM
- TGI [2]: > 100000 nM
- GI50 [3]: 2890 nM
- TGI [3]: > 100 µM
- GI50 [4]: 4810 nM
- TGI [4]: > 100 µM
- GI50 [5]: 2370 nM
- TGI [5]: > 100000 nM
- GI50 [6]: 3020 nM
- TGI [6]: > 100 µM
- GI50 [53]: 2590 nM
- TGI [53]: > 100 µM
- GI50 [8]: 3.4 µM
- TGI [8]: > 100000 nM
- GI50 [9]: 3340 nM
- TGI [9]: > 100 µM
- GI50 [10]: 3400 nM
- TGI [10]: > 100000 nM
- GI50 [13]: 2800 nM
- TGI [13]: > 100000 nM
- GI50 [14]: 2400 nM
- TGI [14]: 7.58 µM
- GI50 [17]: 3410 nM
- TGI [17]: > 100000 nM
- GI50 [19]: 3040 nM
- TGI [19]: > 100 µM
- GI50 [21]: 4.57 µM
- TGI [21]: > 100 µM
- GI50 [22]: 3960 nM
- TGI [22]: > 100 µM
- GI50 [23]: 5.37 µM
- TGI [23]: > 100 µM
- GI50 [25]: 2800 nM
- TGI [25]: > 100 µM
- GI50 [26]: 2610 nM
- TGI [26]: > 100000 nM
- GI50 [29]: 2340 nM
- TGI [29]: 6.83 µM
- GI50 [30]: 3030 nM
- TGI [30]: > 100000 nM
- GI50 [31]: 2980 nM
- TGI [31]: > 100000 nM
- GI50 [33]: 2550 nM
- TGI [33]: > 100 µM
- GI50 [34]: 2560 nM
- TGI [34]: > 100 µM
- GI50 [35]: 4080 nM
- TGI [35]: > 100000 nM
- GI50 [37]: > 100000 nM
- TGI [37]: > 100000 nM
- GI50 [39]: 2.37 µM
- TGI [39]: > 100 µM
- GI50 [40]: 2230 nM
- TGI [40]: > 100000 nM
- GI50 [41]: 3290 nM
- TGI [41]: > 100000 nM
- GI50 [54]: 2430 nM
- TGI [54]: > 100 µM
- GI50 [43]: 2870 nM
- TGI [43]: > 100 µM
- GI50 [45]: 3650 nM
- TGI [45]: > 100000 nM
- GI50 [47]: 3140 nM
- TGI [47]: > 100000 nM
- GI50 [48]: 4690 nM
- TGI [48]: > 100000 nM
- GI50 [52]: 3380 nM
- TGI [52]: > 100000 nM

— PubChem BioAssay (NCI)
